Data taken from PubChem BioAssay (NCI).
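The compound was tested at five concentrations on cells cultured in 96-well plates, with a 48-hour exposure period. Abbreviation: GI50, concentration required for 50% inhibition of growth. TGI marks complete inhibition of growth.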

How the values were obtained:
Assay in all cases: NCI tumour cell line growth inhibition, 48 h
[1] = test system: DU-145 prostate
[2] = test system: K-562 leukemia
[3] = test system: T-47D breast
[4] = test system: SK-MEL-28 melanoma
[5] = test system: SR leukemia
[6] = test system: OVCAR-5 ovarian
[7] = test system: SK-OV-3 ovarian
[8] = test system: PC-3 prostate
[9] = test system: NCI/ADR-RES ovarian
[10] = test system: KM12 colon
[11] = test system: HT29 colon
[12] = test system: MOLT-4 leukemia
[13] = test system: LOX IMVI melanoma
[14] = test system: SK-MEL-2 melanoma
[15] = test system: A549 NSCLC
[16] = test system: SF-539 CNS
[17] = test system: RPMI-8226 leukemia
[18] = test system: OVCAR-4 ovarian
[19] = test system: NCI-H522 lung
[20] = test system: NCI-H226 lung
[21] = test system: UACC-62 melanoma
[22] = test system: BT-549 breast
[23] = test system: A498 renal
[24] = test system: U251 CNS
[25] = test system: OVCAR-3 ovarian
[26] = test system: M14 melanoma
[27] = test system: MALME-3M melanoma
[28] = test system: NCI-H23 lung
[29] = test system: NCI-H460 lung
[30] = test system: CAKI-1 renal
[31] = test system: SF-268 CNS
[32] = test system: MCF7 breast
[33] = test system: SNB-19 CNS
[34] = test system: HCT-116 colon
[35] = test system: HCC-2998 colon
[36] = test system: HS 578T breast
[37] = test system: MDA-MB-231 breast
[38] = test system: SW-620 colon
[39] = test system: SF-295 CNS
[40] = test system: MDA-MB-435
[41] = test system: SN12C renal
[42] = test system: OVCAR-8 ovarian
[43] = test system: COLO 205 colon
[44] = test system: CCRF-CEM leukemia
[45] = test system: HOP-92 NSCLC
[46] = test system: 786-0 renal
[47] = test system: UO-31 renal
[48] = test system: TK-10 renal
[49] = test system: SK-MEL-5 melanoma
[50] = test system: SNB-75 CNS
[51] = test system: UACC-257 melanoma
[52] = test system: HOP-62 NSCLC
[53] = test system: ACHN renal
[54] = test system: RXF 393 renal
[55] = test system: HL-60(TB) leukemia
[56] = test system: HCT-15 colon
[57] = test system: IGROV1 ovarian
[58] = test system: EKVX NSCLC

COc1cccc(-n2ncc3c(N/N=C/c4ccc(C(=O)NCCN(C)C)cc4)ncnc32)c1
GI50 [1]: 3.18 µM | TGI [1]: 6.57 µM | GI50 [2]: 0.128 µM | TGI [2]: 6.65 µM | GI50 [3]: > 22.6 µM | TGI [3]: > 25 µM | GI50 [4]: 3.5 µM | TGI [4]: 7.28 µM | GI50 [5]: 2.29 µM | TGI [5]: > 13.9 µM | GI50 [6]: 4.53 µM | TGI [6]: 8.61 µM | GI50 [7]: 1.53 µM | TGI [7]: 4.68 µM | GI50 [8]: 2.97 µM | TGI [8]: 6.47 µM | GI50 [9]: 5.25 µM | TGI [9]: 11.2 µM | GI50 [10]: 1.36 µM | TGI [10]: 4.67 µM | GI50 [11]: 0.814 µM | TGI [11]: 4.55 µM | GI50 [12]: 4.48 µM | TGI [12]: 11 µM | GI50 [13]: 1.28 µM | TGI [13]: 5.62 µM | GI50 [14]: > 9.86 µM | TGI [14]: > 13.9 µM | GI50 [15]: 3.33 µM | TGI [15]: 6.91 µM | GI50 [16]: 3.78 µM | TGI [16]: 7.79 µM | GI50 [17]: 6.33 µM | TGI [17]: 12.9 µM | GI50 [18]: 3.16 µM | TGI [18]: 7.56 µM | GI50 [19]: 2.04 µM | TGI [19]: 5.96 µM | GI50 [20]: 9.36 µM | TGI [20]: > 22.2 µM | GI50 [21]: 3.72 µM | TGI [21]: 7.39 µM | GI50 [22]: 4.33 µM | TGI [22]: 8.1 µM | GI50 [23]: > 13.6 µM | TGI [23]: > 25 µM | GI50 [24]: 3.25 µM | TGI [24]: 6.77 µM | GI50 [25]: 3.31 µM | TGI [25]: 6.71 µM | GI50 [26]: 1.8 µM | TGI [26]: 5.55 µM | GI50 [27]: 3.43 µM | TGI [27]: 7.81 µM | GI50 [28]: 3.89 µM | TGI [28]: 8.29 µM | GI50 [29]: 3.23 µM | TGI [29]: 7.24 µM | GI50 [30]: 1.27 µM | TGI [30]: 5.48 µM | GI50 [31]: 4.11 µM | TGI [31]: 8.46 µM | GI50 [32]: 3.02 µM | TGI [32]: 6.82 µM | GI50 [33]: 5.07 µM | TGI [33]: 9.75 µM | GI50 [34]: 2.76 µM | TGI [34]: 6.21 µM | GI50 [35]: 4.66 µM | TGI [35]: 8.58 µM | GI50 [36]: 0.57 µM | TGI [36]: 6 µM | GI50 [37]: 3.4 µM | TGI [37]: 7.23 µM | GI50 [38]: 4.73 µM | TGI [38]: 9.06 µM | GI50 [39]: 3.85 µM | TGI [39]: 7.93 µM | GI50 [40]: 1.93 µM | TGI [40]: 5.81 µM | GI50 [41]: 3.01 µM | TGI [41]: 6.99 µM | GI50 [42]: 4.19 µM | TGI [42]: 9.27 µM | GI50 [43]: 0.605 µM | TGI [43]: 3.2 µM | GI50 [44]: 4.17 µM | TGI [44]: 11.2 µM | GI50 [45]: > 25 µM | TGI [45]: > 25 µM | GI50 [46]: 3.58 µM | TGI [46]: 8.14 µM | GI50 [47]: 1.64 µM | TGI [47]: 5.88 µM | GI50 [48]: 3.4 µM | TGI [48]: 6.8 µM | GI50 [49]: 2.95 µM | TGI [49]: 6.09 µM | GI50 [50]: 1.05 µM | TGI [50]: 5.13 µM | GI50 [51]: 3.72 µM | TGI [51]: 7.44 µM | GI50 [52]: 4.14 µM | TGI [52]: 7.81 µM | GI50 [53]: 1.08 µM | TGI [53]: 4.86 µM | GI50 [54]: 0.496 µM | TGI [54]: 3.53 µM | GI50 [55]: 5.58 µM | TGI [55]: 10.5 µM | GI50 [56]: 2.85 µM | TGI [56]: 6.83 µM | GI50 [57]: 1.58 µM | TGI [57]: 6.16 µM | GI50 [58]: 4.31 µM | TGI [58]: 8.57 µM
